Reference: US20240041976A1, “COMPOSITION AND USE” (priority 2020, published 2024)
Read-outs that look alike come from different tables or passages of the source. No end group written: not given here.

How the values were obtained:
MRSA ATCC 33591 = assay: microbe, parasite or virus in culture; format: cell-based, Staphylococcus aureus; settings: for MIC: Staphylococcus aureus, 24 h, read-out: MIC, single antimicrobial
Method: (§1) Antimicrobial activity was measured using the AAMP assay (Wiegand et al., 2008, Nat. Protoc., Vol. 3(2), p 163-175).
(§2) Synergy testing was done with a microtiter plate checkerboard assay as previously described (Orhan et al., 2005, J. Clin. Microbiol., Vol. 43(1), p 140-143). Briefly, equal amounts of antimicrobial A were applied on microtiter plate 1 in wells A1-H1 and then diluted two-fold to wells 2-12. Similarly, equal amounts of antimicrobial B were applied on microtiter plate 2 in wells A1-A12 and diluted two-fold in wells B-H. Volumes of 50 μl of antimicrobial A from each well of microtiter plate 1 were transferred into microtiter plate 3, except for wells H1-H12. Similarly, the same volumes were transferred from microtiter plate 2 into plate 3, except for wells A1-A8. A 100 μl volume of 25 times diluted ON bacterial culture of MRSA was transferred into each well of plate 3. A 50 μl volume of pure broth was added into each well in lines H1-H12 and A1-A8 which were used to estimate MIC values of pure substances (blank).
(§3) Antimicrobial activity was measured using the AAMP assay as described in Example 2.
(§4) Synergy testing was performed as in Example 2.

[1] = system: Methicillin-Resistant Staphylococcus aureus; format: in vivo, mice; settings: repeat on larger groups
Method: The experiment was performed essentially as set out in Example 2, except that the following regimes as described below, were used.
50-70 μl of cream was applied per wound.
Treatment was daily for 4 days.
The rifampicin/MP1 experiment was repeated on a larger group of mice in each category (8 mice for each of rifampicin, MP1, rifampicin+MP1, 8 mice with APO base cream 30% as used for rifampicin and MP1, 7 mice untreated). Seven mice were also treated with fucidin cream (2% fusidic acid in a cream base) as a positive control.

[2] = system: S. pseudintermedius MRSP 45; assay: microbe, parasite or virus in culture; format: cell-based, Staphylococcus pseudintermedius; settings: Staphylococcus pseudintermedius, MRSP45; MRSP 45; 24 h; Table 8; read-out: MIC, single component
Method: as §1, §2, §3, §4

S. aureus LMG3263 = assay: AAMP assay (MIC), single components and formulation mixture; format: cell-based, Staphylococcus aureus; settings: Staphylococcus aureus, LMG3263, 24 h; read-out: MIC, single component
Method: as §1
(§5) Three-component synergy was assessed by mixing the three components (100 μg of PenG, 50 μg of GarKS and 2.5 μg of MP1) into one well of a microtiter plate, compared with activity of individual antimicrobials on the same plate. The fractional inhibition concentration (FIC) which was used to define synergy was calculated as set forth in Example 1.

S. aureus LMG3242 = assay: as above; format: cell-based, Staphylococcus aureus; settings: Staphylococcus aureus, LMG3242, 24 h; read-out: MIC, single component
Method: as §1, §5

S. aureus LMG3266 = assay: as above; format: cell-based, Staphylococcus aureus; settings: Staphylococcus aureus, LMG3266, 24 h; read-out: MIC, single component
Method: as §1, §5

S. aureus LMG3271 = assay: as above; format: cell-based, Staphylococcus aureus; settings: Staphylococcus aureus, LMG3271, 24 h; read-out: MIC, single component
Method: as §1, §5

S. aureus LMG3322 = assay: as above; format: cell-based, Staphylococcus aureus; settings: Staphylococcus aureus, LMG3322, 24 h; read-out: MIC, single component
Method: as §1, §5

S. aureus LMG3265 = assay: as above; format: cell-based, Staphylococcus aureus; settings: Staphylococcus aureus, LMG3265, 24 h; read-out: MIC, single component
Method: as §1, §5

S. aureus LMG3264 = assay: as above; format: cell-based, Staphylococcus aureus; settings: Staphylococcus aureus, LMG3264, 24 h; read-out: MIC, single component
Method: as §1, §5

S. aureus LMG3328 = assay: as above; format: cell-based, Staphylococcus aureus; settings: Staphylococcus aureus, LMG3328, 24 h; read-out: MIC, single component
Method: as §1, §5

S. aureus LMG3307 = assay: as above; format: cell-based, Staphylococcus aureus; settings: Staphylococcus aureus, LMG3307, 24 h; read-out: MIC, single component
Method: as §1, §5

S. aureus LMG3026 = assay: as above; format: cell-based, Staphylococcus aureus; settings: Staphylococcus aureus, LMG3026, 24 h; read-out: MIC, single component
Method: as §1, §5

S. aureus LMG3255 = assay: as above; format: cell-based, Staphylococcus aureus; settings: Staphylococcus aureus, LMG3255, 24 h; read-out: MIC, single component
Method: as §1, §5

S. aureus LMG3258 = assay: as above; format: cell-based, Staphylococcus aureus; settings: Staphylococcus aureus, LMG3258, 24 h; read-out: MIC, single component
Method: as §1, §5

S. aureus LMG3314 = assay: as above; format: cell-based, Staphylococcus aureus; settings: Staphylococcus aureus, LMG3314, 24 h; read-out: MIC, single component
Method: as §1, §5

MRSA 43484 = assay: AAMP assay and checkerboard synergy; format: cell-based, Staphylococcus aureus; settings: MRSA 43484; for MIC: Staphylococcus aureus, 24 h, read-out: MIC, single antimicrobial
Method: as §1, §2, §5

MRSA ATCC 33591-lux = assay: AAMP assay and checkerboard synergy; format: cell-based, Staphylococcus aureus; settings: for MIC: Staphylococcus aureus, 24 h, read-out: MIC, single antimicrobial
Method: as §1, §2, §5

MRSA USA-300 = assay: AAMP assay and checkerboard synergy; format: cell-based, Staphylococcus aureus; settings: for MIC: Staphylococcus aureus, 24 h, read-out: MIC, single antimicrobial
Method: as §1, §2, §5

[3] = system: three MRSA strains (ATCC33591-lux, USA-300 and MRSA 43484); assay: AAMP assay and checkerboard synergy, summary; format: cell-based, Staphylococcus aureus; settings: for MIC of the antimicrobial in comb. with GarKS: All three strains; for synergy with GarKS: checkerboard assay
Method: as §2, with “Briefly,” for “Synergy testing was done with a microtiter plate checkerboard assay as previously described (Orhan et al., 2005, J. Clin. Microbiol., Vol. 43(1), p 140-143). Briefly,”, “A 100 μl volume of 25 times diluted ON bacterial culture of MRSA was transferred into each well of plate 3.” left out
Three-component synergy was assessed by mixing the three components (100 μg of PenG, 50 μg of GarKS and 2.5 μg of MP1) into one well of a microtiter plate, compared with activity of individual antimicrobials on the same plate.

E. faecium LMGT 3104 = assay: microbe, parasite or virus in culture; format: cell-based, Enterococcus faecium
Method: as §1, §2, §3, §4

With CO[C@H]1/C=C/O[C@@]2(C)Oc3c(C)c(O)c4c(O)c(c(/C=N/N5CCN(C)CC5)c(O)c4c3C2=O)NC(=O)/C(C)=C\C=C\[C@H](C)[C@H](O)[C@@H](C)[C@@H](O)[C@@H](C)[C@H](OC(C)=O)[C@@H]1C [Rifampicin] the “MIC of MP1 in comb. with the labelled antimicrobial” value (“MIC of MP1” below) (MRSA ATCC 33591) was 0.08 µg/mL, the “MIC of the labelled antimicrobial in comb. with MP1” value (“MIC of the labelled antimicrobial” below) (MRSA ATCC 33591) was 1.5 µg/mL and the MIC (MRSA ATCC 33591) was > 100 µg/mL. For the same compound, the “duration of the antimicrobial effect” value [1] was “less than 48 hours”.

With CC[C@H]1OC(=O)[C@H](C)[C@@H](O[C@H]2C[C@@](C)(OC)[C@@H](O)[C@H](C)O2)[C@H](C)[C@@H](O[C@@H]2O[C@H](C)C[C@H](N(C)C)[C@H]2O)[C@](C)(O)C[C@@H](C)C(=O)[C@H](C)[C@@H](O)[C@]1(C)O [Ery, Erythromycin] the MIC [2] was > 250 µg/mL, the MIC (S. aureus LMG3263) was > 2500 µg/mL and the MIC (S. aureus LMG3242) was < 2.5 µg/mL. For the same compound, the MIC (S. aureus LMG3266) was > 2500 µg/mL, the MIC (S. aureus LMG3271) was < 2.5 µg/mL and the MIC (S. aureus LMG3322) was < 2.5 µg/mL. The MIC (S. aureus LMG3265) was > 2500 µg/mL, the MIC (S. aureus LMG3264) was < 2.5 µg/mL and the MIC (S. aureus LMG3328) was < 2.5 µg/mL. The MIC (S. aureus LMG3307) was < 2.5 µg/mL, the MIC (S. aureus LMG3026) was < 2.5 µg/mL and the MIC (S. aureus LMG3255) was < 2.5 µg/mL. For the same compound, the MIC (S. aureus LMG3258) was < 2.5 µg/mL, the MIC (S. aureus LMG3314) was < 2.5 µg/mL and the “MIC of the antimicrobial in comb. with GarKS” value (“MIC of the antimicrobial” for short) (MRSA 43484) was 32 µg/mL. For the same compound, the MIC (MRSA 43484) was 62 µg/mL, the “MIC of the antimicrobial” value (MRSA ATCC 33591-lux; MRSA ATCC 33591-lux) was 62 µg/mL and the “MIC, single antimicrobial” value (MRSA ATCC 33591-lux; MRSA ATCC 33591-lux) was >250 µg/mL. The MIC (MRSA ATCC 33591-lux; MRSA ATCC 33591-lux) was > 250 µg/mL, the “MIC of the antimicrobial” value (MRSA USA-300; MRSA USA-300) was 16 µg/mL and the MIC (MRSA USA-300; MRSA USA-300) was 31 µg/mL. For the same compound, the “MIC of the antimicrobial” value [3] was 16 to 62 µg/mL and the “synergy with GarKS” value [3] was “no synergy or only additive effects”.

With “MKFKFNPTGTIVKKLTQYEIAWFKNKHGYYPWEIPRC [EntK1]” the “MIC of MP1” value (E. faecium LMGT 3104) was 0.02 µg/mL, the “MIC of the labelled antimicrobial” value (E. faecium LMGT 3104) was 0.4 µg/mL and the “MIC, single antimicrobial” value (E. faecium LMGT 3104) was >250 µg/mL.

Compound O=C(N[C@H](CO)[C@H](O)c1ccc([N+](=O)[O-])cc1)C(Cl)Cl [Cam, Chloramphenicol] has an MIC [2] of 62 µg/mL, an MIC (S. aureus LMG3263) of 32 µg/mL and an MIC (S. aureus LMG3242) of 8 µg/mL. The MIC (S. aureus LMG3266) was 32 µg/mL, the MIC (S. aureus LMG3271) was 16 µg/mL and the MIC (S. aureus LMG3322) was 8 µg/mL. For the same compound, the MIC (S. aureus LMG3265) was 32 µg/mL, the MIC (S. aureus LMG3264) was 16 µg/mL and the MIC (S. aureus LMG3328) was 8 µg/mL. It also gave an MIC (S. aureus LMG3307) of 8 µg/mL, an MIC (S. aureus LMG3026) of 8 µg/mL and an MIC (S. aureus LMG3255) of 16 µg/mL. For the same compound, the MIC (S. aureus LMG3258) was 16 µg/mL, the MIC (S. aureus LMG3314) was 8 µg/mL and the “MIC of the antimicrobial” value (MRSA 43484) was 64 µg/mL. The MIC (MRSA 43484) was 16 µg/mL, the “MIC of the antimicrobial” value (MRSA ATCC 33591-lux; MRSA ATCC 33591-lux) was 32/32 μg/ml and the MIC (MRSA ATCC 33591-lux) was 125 µg/mL. The “MIC of the antimicrobial” value (MRSA USA-300; MRSA USA-300) was 64 µg/mL, the MIC (MRSA USA-300; MRSA) was 125 µg/mL and the “MIC of MP1” value (MRSA ATCC 33591) was 0.08 µg/mL. For the same compound, the “MIC of the labelled antimicrobial” value (MRSA ATCC 33591) was 8 µg/mL, the MIC (MRSA ATCC 33591) was 62 µg/mL and the “MIC of the antimicrobial” value [3] was 32 to 64 µg/mL. The MIC ([3]; Staphylococcus aureus, 24 h, read-out: MIC, single antimicrobial, All three strains) was 16 to 125 µg/mL and the “synergy with GarKS” value [3] was “no synergy or only additive effects”.
